# Measurements published in ChEMBL document CHEMBL1201862, “PubChem BioAssay data set” (2004).
# Activity calls are given as the source filed them.
# Key:
# [1] = test system: Streptococcus; experiment: Luminescence Microorganism-Based Dose Response Follow up to Identify Compounds Cytotoxic to Streptococcus. [Related pubchem assays: 1677 (Project Summary), 1915, 1914, 1902 (Retest at Dose), 1900 (Counter Screen), 1662 (Primary HTS)]; format: functional, organism-based
# [2] = test system: Streptococcus; experiment: Group A Streptococcus viability loss, dose response, counter-screen for streptokinase expression inhibitor project, luminescence, BacTiterGlo (AID 1915); format: functional, organism-based;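 also: potency for reduction of bacterial viability or growth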
# [3] = molecular target: T1, Streptokinase A (Streptococcus pyogenes serotype M1, UniProt P10520); experiment: S. pyogenes streptokinase expression inhibitors, potency, dose response, plasminogen activation absorbance, OD405 (AID 1914); format: functional, Streptococcus pyogenes M1 GAS;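 also: secreted streptokinase activity via plasminogen activation per viability signal from cell pellet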
# T1 sequence (P10520 whole entry): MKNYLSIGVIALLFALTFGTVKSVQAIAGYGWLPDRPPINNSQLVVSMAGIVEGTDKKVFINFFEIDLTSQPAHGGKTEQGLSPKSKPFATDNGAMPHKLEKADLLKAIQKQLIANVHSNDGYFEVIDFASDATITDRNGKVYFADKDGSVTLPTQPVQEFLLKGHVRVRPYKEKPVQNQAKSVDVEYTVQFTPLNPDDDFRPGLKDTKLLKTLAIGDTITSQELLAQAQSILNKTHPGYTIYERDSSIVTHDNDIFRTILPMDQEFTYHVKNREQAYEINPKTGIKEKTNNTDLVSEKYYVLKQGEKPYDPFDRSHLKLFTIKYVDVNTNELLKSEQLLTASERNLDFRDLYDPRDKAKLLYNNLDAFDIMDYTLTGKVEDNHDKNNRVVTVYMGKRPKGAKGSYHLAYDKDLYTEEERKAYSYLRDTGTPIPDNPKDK
# [4] = test system: Streptococcus sp. 'group A'; experiment: growth inhibition of control SK(-) GAS strain, dose response, counter-screen for streptokinase expression inhibitor project, luminescence, kanamycin, BacTiterGlo, confirmation (AID 1900); format: functional, organism-based
# [5] = molecular target: T2, Hexokinase HKDC1 (Homo sapiens, UniProt Q2TB90); experiment: HKDC1 hexokinase inhibitors, dose response, biochemical, W721R variant (AID 504729); format: functional
# T2 sequence (Q2TB90 whole entry): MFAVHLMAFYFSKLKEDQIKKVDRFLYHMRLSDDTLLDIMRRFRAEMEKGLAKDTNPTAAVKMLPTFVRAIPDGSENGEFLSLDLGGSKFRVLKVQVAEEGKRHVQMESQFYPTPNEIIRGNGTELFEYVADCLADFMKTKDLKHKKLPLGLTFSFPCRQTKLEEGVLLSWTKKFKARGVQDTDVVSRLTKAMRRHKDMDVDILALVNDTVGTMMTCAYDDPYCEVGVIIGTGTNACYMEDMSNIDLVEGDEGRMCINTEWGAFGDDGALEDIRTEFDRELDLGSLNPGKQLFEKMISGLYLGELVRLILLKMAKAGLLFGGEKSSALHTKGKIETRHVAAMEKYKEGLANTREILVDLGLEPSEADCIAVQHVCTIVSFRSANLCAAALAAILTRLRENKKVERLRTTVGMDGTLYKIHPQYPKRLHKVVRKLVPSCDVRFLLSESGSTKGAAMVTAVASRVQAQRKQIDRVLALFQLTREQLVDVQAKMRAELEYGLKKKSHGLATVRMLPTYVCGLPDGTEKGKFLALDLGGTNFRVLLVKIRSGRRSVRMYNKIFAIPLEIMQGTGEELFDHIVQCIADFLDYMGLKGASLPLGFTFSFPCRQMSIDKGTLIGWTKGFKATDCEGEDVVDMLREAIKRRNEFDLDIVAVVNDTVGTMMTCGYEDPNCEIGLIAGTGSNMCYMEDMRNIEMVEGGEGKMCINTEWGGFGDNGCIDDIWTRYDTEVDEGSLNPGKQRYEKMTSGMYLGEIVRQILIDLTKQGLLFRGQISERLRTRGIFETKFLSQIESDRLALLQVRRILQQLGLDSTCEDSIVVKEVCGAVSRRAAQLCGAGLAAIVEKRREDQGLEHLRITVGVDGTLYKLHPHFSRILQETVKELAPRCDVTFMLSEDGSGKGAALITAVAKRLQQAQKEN
# [6] = miR-122 activators in hepatoma reporter cells, dose response, cell-based, Huh7 psiCHECK-miR122, Renilla luciferase, cherry-picked (AID 651956); format: functional;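 also: huh7 hepatoma cells stably carrying a psiCHECK-2 miR-122 sensor plasmid; renilla luciferase signal reporting endogenous miR-122 activity after 48 h compound exposure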
# [7] = molecular target: T3, Microphthalmia-associated transcription factor (Homo sapiens, UniProt O75030); experiment: TRPM1 promoter luciferase signal decrease, dose response, MITF inhibitor project, cell-based, SK-MEL-5, cherry-picked, set 3 (AID 493073); format: functional
# T3 sequence (O75030 whole entry): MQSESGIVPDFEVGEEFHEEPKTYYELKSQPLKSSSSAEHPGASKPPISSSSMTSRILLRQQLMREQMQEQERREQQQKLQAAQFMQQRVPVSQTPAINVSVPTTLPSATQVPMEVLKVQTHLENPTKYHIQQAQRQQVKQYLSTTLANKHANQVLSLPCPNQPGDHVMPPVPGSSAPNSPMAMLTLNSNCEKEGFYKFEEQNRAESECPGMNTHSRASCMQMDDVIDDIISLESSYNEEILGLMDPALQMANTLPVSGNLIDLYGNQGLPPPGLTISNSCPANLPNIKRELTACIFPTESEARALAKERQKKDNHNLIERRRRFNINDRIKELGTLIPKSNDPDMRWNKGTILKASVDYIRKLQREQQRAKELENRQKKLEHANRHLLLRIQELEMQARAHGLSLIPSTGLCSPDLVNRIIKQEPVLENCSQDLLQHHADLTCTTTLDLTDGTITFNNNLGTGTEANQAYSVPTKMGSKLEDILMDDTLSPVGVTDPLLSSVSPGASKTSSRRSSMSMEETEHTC
# [8] = molecular target: Oxytocin receptor (Homo sapiens, UniProt P30559); experiment: Fluorescence-based cell-based high throughput dose response assay for agonists of the Oxytocin Receptor (OXTR). [Related pubchem assays: 2435 (Primary screen (OXTR agonists in singlicate)), 434991 (Counterscreen (V1R agonists in triplicate)), 2482 (Summary (OXTR agonists)), 434963 (Confirmation screen (OXTR agonists in triplicate))]; format: functional
# Chain of Oxytocin receptor (P30559 whole entry): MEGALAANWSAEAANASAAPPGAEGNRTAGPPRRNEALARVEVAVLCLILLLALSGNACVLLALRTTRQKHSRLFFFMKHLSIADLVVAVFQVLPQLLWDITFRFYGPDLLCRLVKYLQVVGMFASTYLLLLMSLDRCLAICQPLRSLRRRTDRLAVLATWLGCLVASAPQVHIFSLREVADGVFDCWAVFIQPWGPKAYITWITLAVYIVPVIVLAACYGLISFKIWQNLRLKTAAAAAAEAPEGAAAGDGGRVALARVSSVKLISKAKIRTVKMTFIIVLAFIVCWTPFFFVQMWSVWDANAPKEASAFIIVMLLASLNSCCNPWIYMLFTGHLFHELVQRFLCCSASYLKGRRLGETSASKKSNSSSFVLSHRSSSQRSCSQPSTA
# [9] = molecular target: Vasopressin V1a receptor (Homo sapiens, UniProt P37288); experiment: Counterscreen for Oxytocin Receptor (OXTR) agonists: Fluorescence-based cell-based high throughput dose response assay to identify agonists of the vasopressin 1 receptor (V1R). [Related pubchem assays: 2435 (Primary screen (OXTR agonists in singlicate)), 434991 (Counterscreen (V1R agonists in triplicate)), 2482 (Summary (OXTR agonists)) …; format: functional
# Chain of Vasopressin V1a receptor (P37288 whole entry): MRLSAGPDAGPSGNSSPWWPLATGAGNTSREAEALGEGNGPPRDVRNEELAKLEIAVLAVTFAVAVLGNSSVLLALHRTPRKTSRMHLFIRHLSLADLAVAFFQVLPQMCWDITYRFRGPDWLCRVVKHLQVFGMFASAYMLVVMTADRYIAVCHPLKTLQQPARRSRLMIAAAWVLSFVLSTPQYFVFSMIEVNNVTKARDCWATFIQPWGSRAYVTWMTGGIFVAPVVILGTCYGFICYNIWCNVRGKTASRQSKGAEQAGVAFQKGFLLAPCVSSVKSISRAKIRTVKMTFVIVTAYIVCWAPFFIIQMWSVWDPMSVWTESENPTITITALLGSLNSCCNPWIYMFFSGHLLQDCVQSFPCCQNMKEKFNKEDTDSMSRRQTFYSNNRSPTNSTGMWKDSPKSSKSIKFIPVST
# [10] = test system: A-375; experiment: MITF: Counter assay: A375 proliferation Measured in Cell-Based System Using Plate Reader - 2084-03_Inhibitor_Dose_DryPowder_Activity. [Related pubchem assays (depositor defined):AID488944]; format: functional; conditions: Homo sapiens
# [11] = HEK293T cytotoxicity, dose response, cytotoxicity control for miR-122 modulator project, cell-based, activator set, cherry-pick (AID 720690); format: functional;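 also: HEK293T human cells scored for general mammalian cytotoxicity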
# [12] = molecular target: T4, Tyrosine-protein phosphatase non-receptor type 7 (Homo sapiens, UniProt P35236); experiment: SAR analysis of chemical inhibitors of HePTP using a Fluorescent assay - Set 2. [Related pubchem assays (depositor defined):AID1059, AID1077, AID1661, AID2085, AID521]; format: functional
# T4 sequence (P35236 whole entry): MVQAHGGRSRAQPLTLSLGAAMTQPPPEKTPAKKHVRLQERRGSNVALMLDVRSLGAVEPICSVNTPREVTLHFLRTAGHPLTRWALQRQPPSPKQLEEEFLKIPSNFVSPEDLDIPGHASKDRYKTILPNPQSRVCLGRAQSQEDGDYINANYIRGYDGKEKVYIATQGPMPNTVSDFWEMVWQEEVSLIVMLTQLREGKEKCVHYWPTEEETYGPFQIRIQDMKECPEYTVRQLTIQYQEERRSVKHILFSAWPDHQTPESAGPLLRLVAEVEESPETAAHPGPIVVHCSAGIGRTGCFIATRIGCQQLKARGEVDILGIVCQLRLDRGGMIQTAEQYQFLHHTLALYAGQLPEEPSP
# [13] = molecular target: Dual specificity protein phosphatase 3 (Homo sapiens, UniProt P51452); experiment: SAR VHR1 Fluorescent Assay for In Vitro dose response studies Set 2. [Related pubchem assays (depositor defined):AID1654, AID1661, AID1878]; format: functional
# Chain of Dual specificity protein phosphatase 3 (P51452 whole entry): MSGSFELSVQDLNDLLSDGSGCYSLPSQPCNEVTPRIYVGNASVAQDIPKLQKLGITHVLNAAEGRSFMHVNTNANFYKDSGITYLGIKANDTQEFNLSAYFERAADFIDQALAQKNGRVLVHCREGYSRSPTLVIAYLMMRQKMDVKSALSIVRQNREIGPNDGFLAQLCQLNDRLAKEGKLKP
# [14] = inhibitors of SNCA 5'UTR-driven reporter translation, confirmation, H4 neuroglioma cells, luminescence (AID 1988); format: functional, cell-based
# [15] = cytotoxicity in HEK-293T cells, dose response, cytotoxicity control for BCR NF-kB inhibitor project, luminescence, B-cell screen hits (AID 489021); format: functional, cell-based;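 also: HEK-293T cells carrying an NF-kB luciferase reporter; cells exposed to compound for about 14 hours before viability readout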
# [16] = inhibitors of firefly luciferase expression or activity, dose response, H4 neuroglioma cells, luminescence (AID 1990); format: functional, cell-based
# [17] = Luminescence Cell-Based Dose Response HTS to Identify Inhibitors of 5'UTR Stem-Loop Driven Prion Protein mRNA Translation in H4 Neuroglioblastoma Cells. [Related pubchem assays: 1827 (Project Summary), 1813 (Primary HTS)]; format: functional
# [18] = molecular target: Cytochrome P450 3A4 (Homo sapiens, UniProt P08684); conditions: Potency;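 also: confirmatory qHTS run detecting inhibitors and substrates of CYP3A4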
# Chain of Cytochrome P450 3A4 (P08684 whole entry): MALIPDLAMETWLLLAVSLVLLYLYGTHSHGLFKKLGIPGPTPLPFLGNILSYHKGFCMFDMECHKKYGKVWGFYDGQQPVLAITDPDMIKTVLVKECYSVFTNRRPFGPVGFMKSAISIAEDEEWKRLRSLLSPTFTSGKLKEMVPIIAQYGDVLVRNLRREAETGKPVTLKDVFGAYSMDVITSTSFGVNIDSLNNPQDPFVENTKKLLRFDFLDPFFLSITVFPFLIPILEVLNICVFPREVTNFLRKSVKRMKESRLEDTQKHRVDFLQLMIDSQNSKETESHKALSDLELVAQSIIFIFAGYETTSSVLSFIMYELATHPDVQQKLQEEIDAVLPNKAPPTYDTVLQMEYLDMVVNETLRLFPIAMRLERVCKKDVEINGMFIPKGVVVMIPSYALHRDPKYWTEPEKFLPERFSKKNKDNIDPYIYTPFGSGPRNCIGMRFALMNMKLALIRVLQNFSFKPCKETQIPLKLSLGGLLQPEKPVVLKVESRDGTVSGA
compound,measurement,setting,value
Cc1ccc(C(=O)C(c2ccccc2)N2Cc3ccccc3C2=N)cc1 (centres undefined),EC50,[1],33.5 µM (active)
CCN(CC)C(=S)SCC(=O)Nc1nc(-c2ccccc2)c(-c2ccccc2)o1,EC50,[2],> 150 µM (not active)
same,EC50,[3],8.54 µM (active)
same,EC50,[4],7.26 µM (active)
same,EC50,[1],> 500 µM (not active)
COc1ccc(NC(=O)CSc2ccc(-c3cccnc3)nn2)c(OC)c1,IC50,[5],17.8 µM (active)
N=c1n(CC(=O)c2ccc(Br)s2)c2ccccc2n1Cc1ccccc1,AC50,[6],10.9 µM (active)
same,AC50,[7],7.34 µM (active)
same,EC50,[8],14.8 µM (not active)
same,EC50,[9],15.1 µM (not active)
same,AC50,[10],19.7 µM (active)
same,AC50,[11],11.4 µM (active)
COc1cc(C(=S)NCc2cccc(C(F)(F)F)c2)ccc1O,IC50,[12],55 µM (active)
same,IC50,[13],47 µM (active)
O=c1ccc2nccc3c4c(O)cccc4n1c23,EC50,[14],11.9 µM (active)
same,IC50,[15],> 80 µM (inactive)
same,EC50,[16],12.7 µM (active)
same,EC50,[17],9.94 µM (active)
CC(C)=CCOc1cc2oc(=O)ccc2cc1O [PRENYLETIN],AC50,[18],39.8 µM (inconclusive)
